# According to PubChem BioAssay AID1053139 (Broad Institute, 2014):
# Calls of active or inactive are those of the source.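 Rule for the calls: active = AC50 for cell killing below 10 µM, with the signal falling as expected; inactive = the rest, including compounds acting in the opposite direction.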
# System: HepG2 viability, ATP luminescence (CellTiter-Glo), 72 h
# Test: viability loss in HepG2 hepatoma cells – cell-based, ATP luminescence, dry powder, set 16, cytotoxicity control, dose response (AID 1053139)
# Details: not given
row,SMILES,AC50
1,CO[C@H]1CN(C)C(=O)c2cc(NC(=O)NC(C)C)ccc2OC[C@H](C)N(Cc2cncnc2)C[C@@H]1C,> 100 µM (inactive)
2,CO[C@H]1CN(C)C(=O)c2cc(Nc3c(NC4CC4)c(=O)c3=O)ccc2OC[C@H](C)N(Cc2ccc(-c3ccccn3)cc2)C[C@@H]1C,38.4 µM
3,CO[C@H]1CN(C)C(=O)c2cc(NC(=O)C(C)C)ccc2OC[C@H](C)N(Cc2ccc(-c3ccccn3)cc2)C[C@@H]1C,> 24 µM (inactive)
4,CO[C@H]1CN(C)C(=O)c2cc(NC(=O)NC(C)C)ccc2OC[C@H](C)N(Cc2ccc(-c3cncnc3)cc2)C[C@@H]1C,> 100 µM (inactive)

# System: not listed separately
# Test: as above
# Details: HepG2 viability, ATP luminescence (CellTiter-Glo), 72 h; at 26 µM (top of the series)
row,SMILES,"activity change, negative = cytotoxicity"
1,CO[C@H]1CN(C)C(=O)c2ccc(NC(=O)NC(C)C)cc2OC[C@H](C)N(Cc2ccc(-c3ccccn3)cc2)C[C@@H]1C,-5.04% (inactive)
2,CCCNC(=O)Nc1ccc2c(c1)OC[C@H](C)N(Cc1ccc(-c3ccccn3)cc1)C[C@H](C)[C@@H](OC)CN(C)C2=O,-4.61% (inactive)
3,CCCNC(=O)Nc1ccc2c(c1)OC[C@H](C)N(Cc1ccccc1)C[C@H](C)[C@@H](OC)CN(C)C2=O,11.9% (inactive)
4,CO[C@H]1CN(C)C(=O)c2ccc(NC(=O)NC(C)C)cc2OC[C@H](C)N(Cc2ccccc2)C[C@@H]1C,9.75% (inactive)
5,CCCC(=O)Nc1ccc2c(c1)OC[C@H](C)N(Cc1ccc(-c3ccccn3)cc1)C[C@H](C)[C@@H](OC)CN(C)C2=O,10.3% (inactive)
6,CCCC(=O)Nc1ccc2c(c1)OC[C@H](C)N(Cc1ccccc1)C[C@H](C)[C@@H](OC)CN(C)C2=O,6.6% (inactive)

# Same assay, conditions: HepG2 viability, ATP luminescence (CellTiter-Glo), 72 h; at 50 µM (top of the series)
row,SMILES,"activity change, negative = cytotoxicity"
1,CO[C@H]1CN(C)C(=O)c2cc(NC(=O)NC(C)C)ccc2OC[C@H](C)N(Cc2ccccc2F)C[C@@H]1C,12.7% (inactive)
2,CO[C@H]1CN(C)C(=O)c2cc(NC(=O)NC(C)C)ccc2OC[C@H](C)N(Cc2ccncc2)C[C@@H]1C,-4.57% (inactive)
3,CO[C@H]1CN(C)C(=O)c2cc(NC(=O)NC(C)C)ccc2OC[C@H](C)N(Cc2ccc(-c3ccccn3)cc2)C[C@@H]1C,-5.64% (inactive)
4,CO[C@H]1CN(C)C(=O)c2cc(NC(=O)NC(C)C)ccc2OC[C@H](C)N(C(=O)c2ccccc2)C[C@@H]1C,-5.8% (inactive)
5,CO[C@H]1CN(C)C(=O)c2cc(NC(=O)NC(C)C)ccc2OC[C@H](C)NC[C@@H]1C,-2.2% (inactive)
6,CO[C@H]1CN(C)C(=O)c2cc(NC(=O)NC(C)C)ccc2OC[C@H](C)N(Cc2ccc(F)cc2)C[C@@H]1C,0.295% (inactive)
7,CO[C@H]1CN(C)C(=O)c2cc(NC(=O)NC(C)C)ccc2OC[C@H](C)N(C(=O)Nc2ccc(-c3ccccn3)cc2)C[C@@H]1C,-15% (inactive)
8,CO[C@H]1CN(C)C(=O)c2cc(Nc3c(NC4CCCCC4)c(=O)c3=O)ccc2OC[C@H](C)N(Cc2ccc(-c3ccccn3)cc2)C[C@@H]1C,-22.3% (inactive)
9,CO[C@H]1CN(C)C(=O)c2cc(N)ccc2OC[C@H](C)N(Cc2ccc(-c3ccccn3)cc2)C[C@@H]1C,19.6% (inactive)
10,CO[C@H]1CN(C)C(=O)c2cc(NC(=O)NC(C)C)ccc2OC[C@H](C)N(C(=O)c2ccc(-c3ccccn3)cc2)C[C@@H]1C,-10.3% (inactive)
11,CO[C@H]1CN(C)C(=O)c2cc(NC(=O)NC(C)C)ccc2OC[C@H](C)N(Cc2ccccn2)C[C@@H]1C,1.78% (inactive)
12,CO[C@H]1CN(C)C(=O)c2cc(NC(=O)OC(C)C)ccc2OC[C@H](C)N(Cc2ccc(-c3ccccn3)cc2)C[C@@H]1C,12.6% (inactive)
13,CCC(CC)Nc1c(Nc2ccc3c(c2)C(=O)N(C)C[C@H](OC)[C@@H](C)CN(Cc2ccc(-c4ccccn4)cc2)[C@@H](C)CO3)c(=O)c1=O,-1.61% (inactive)
14,CO[C@H]1CN(C)C(=O)c2cc(NC(=O)NC(C)C)ccc2OC[C@H](C)N(Cc2ccc(-c3cccnc3)cc2)C[C@@H]1C,40.3% (inactive)
15,CO[C@H]1CN(C)C(=O)c2cc(Nc3ncccn3)ccc2OC[C@H](C)N(Cc2ccc(-c3ccccn3)cc2)C[C@@H]1C,15.4% (inactive)
16,CO[C@H]1CN(C)C(=O)c2cc(Nc3c(NC4CCCC4)c(=O)c3=O)ccc2OC[C@H](C)N(Cc2ccc(-c3ccccn3)cc2)C[C@@H]1C,6.09% (inactive)
17,CO[C@H]1CN(C)C(=O)c2cc(Nc3c(NC(C)C)c(=O)c3=O)ccc2OC[C@H](C)N(Cc2ccc(-c3ccccn3)cc2)C[C@@H]1C,-15.4% (inactive)
18,CO[C@H]1CN(C)C(=O)c2cc(NC(=O)NC(C)C)ccc2OC[C@H](C)N(Cc2cccnc2)C[C@@H]1C,6.28% (inactive)
19,CO[C@H]1CN(C)C(=O)c2cc(NC(=O)NC(C)C)ccc2OC[C@H](C)N(Cc2ccc(-c3ccncc3)cc2)C[C@@H]1C,-12.8% (inactive)
20,CO[C@H]1CN(C)C(=O)c2cc(NC(=O)NC(C)C)ccc2OC[C@H](C)N(Cc2cccc(F)c2)C[C@@H]1C,-1.88% (inactive)
